Assay results as given in the supplement of paper PMC10307832.

How the values were obtained:
Experiment in all cases: relative viability (nuclei count vs DMSO), 5 days (fraction); higher = more cells survive
[1] = compound: C1/C(=C\C2=CC=CS2)/C(=O)/C(=C/C3=CC=CS3)/C1
In short: (§1)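 In 1536-well plates, lung cancer cell lines rested overnight at 37 °C before five library-drug doses (not always all listed), √10 apart, were pinned onto vehicle-anchored plates. Nuclei were counted with MetaXpress from 4× Hoechst images taken after 5 days without medium change. Viability compares treated-well with vehicle-well nuclei as a median over plates, and plates needed control CV below 25% plus at least one doubling to pass.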

TPCA-1 = compound: C1=CC(=CC=C1C2=CC(=C(S2)NC(=O)N)C(=O)N)F [TPCA-1]
In short: as §1

Lestaurtinib = compound: C[C@]12O[C@H](C[C@]1(O)CO)n1c3ccccc3c3c4c(c5c6ccccc6n2c5c31)CNC4=O [Lestaurtinib]
In short: as §1

TPCA-1 + Dasatinib = compound: C1=CC(=CC=C1C2=CC(=C(S2)NC(=O)N)C(=O)N)F [TPCA-1] + Cc1nc(Nc2ncc(C(=O)Nc3c(C)cccc3Cl)s2)cc(N2CCN(CCO)CC2)n1 [Dasatinib] (partner 0.075 µM)
In short: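 Relative viability was taken as the ratio of nuclei in treated wells to nuclei in vehicle wells. Lung cancer cell lines in 1536-well plates received compounds by pin tool one day after seeding, either one drug alone or a fixed anchor-drug dose plus five library-drug doses (not always all listed) in √10 steps. Nuclei were counted on 4× images after 5 days of treatment, and values are medians of duplicate plates.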

Row | Cell Line | relative viability ([1]; 0.2 µM) | relative viability ([1]; 0.6325 µM) | relative viability ([1]; 2 µM) | relative viability ([1]; 6.325 µM) | relative viability ([1]; 20 µM) | relative viability (TPCA-1; 0.04 µM) | relative viability (TPCA-1; 0.1265 µM) | relative viability (TPCA-1; 0.4 µM) | relative viability (TPCA-1; 1.265 µM) | relative viability (TPCA-1; 4 µM) | relative viability (Lestaurtinib; 0.005 µM) | relative viability (Lestaurtinib; 0.01581 µM) | relative viability (Lestaurtinib; 0.05 µM) | relative viability (Lestaurtinib; 0.1581 µM) | relative viability (Lestaurtinib; 0.5 µM) | relative viability (TPCA-1 + Dasatinib; first compound 0.04 µM) | relative viability (TPCA-1 + Dasatinib; first compound 0.1265 µM) | relative viability (TPCA-1 + Dasatinib; first compound 0.4 µM) | relative viability (TPCA-1 + Dasatinib; first compound 1.265 µM) | relative viability (TPCA-1 + Dasatinib; first compound 4 µM)
1 | NCI-H322M | 0.928 | 0.924 | 1.01 | 0.804 | 0.912 | 1.11 | 0.885 | 1.03 | 1.13 | 0.704 | 0.904 | 0.924 | 0.497 | 0.663 | 0.624 | 0.267 | 0.261 | 0.244 | 0.281 | 0.238
2 | NCI-H358 | 1.09 | 0.915 | 0.963 | 0.754 | 0.933 | 1.34 | 0.832 | 0.984 | 0.767 | 0.401 | 0.839 | 0.748 | 0.493 | 0.397 | 0.207 | 0.193 | 0.135 | 0.173 | 0.152 | 0.117
3 | NCI-H441 | 1.14 | 1.24 | 1.14 | 0.867 | 0.995 | 1.22 | 0.816 | 0.882 | 0.704 | 0.425 | 1.02 | 1.05 | 0.611 | 0.61 | 0.438 | 0.882 | 0.559 | 0.688 | 0.245 | 0.274
4 | NCI-H460 | 1.05 | 1.01 | 1.05 | 0.823 | 0.971 | 1.03 | 0.984 | 1.01 | 1.04 | 0.889 | 1.08 | 1.09 | 1.04 | 1.08 | 0.836 | 0.707 | 0.421 | 0.496 | 0.465 | 0.361
5 | NCI-H520 | 1.04 | 1.13 | 1.12 | 0.969 | 0.886 | 1.16 | 0.835 | 0.941 | 1.1 | 0.371 | 1.13 | 1.07 | 0.789 | 0.524 | 0.292 | 0.219 | 0.187 | 0.223 | 0.18 | 0.176
6 | NCI-H522 | 1.12 | 0.967 | 1.06 | 0.978 | 0.922 | 0.928 | 0.916 | 1.18 | 1.07 | 0.844 | 1.03 | 0.963 | 0.877 | 0.877 | 0.604 | 0.993 | 0.833 | 1.11 | 0.844 | 0.788
7 | NCI-H596 | 1 | 0.994 | 1.11 | 0.85 | 0.964 | 1.09 | 0.978 | 1.05 | 1.17 | 0.842 | 1.02 | 0.889 | 0.872 | 1.06 | 1.02 | 0.661 | 0.559 | 0.599 | 0.597 | 0.763
8 | NCI-H647 | 1.01 | 1.01 | 1.02 | 0.84 | 0.85 | 0.972 | 0.818 | 1.07 | 0.867 | 0.48 | 0.918 | 0.988 | 0.513 | 0.407 | 0.172 | 0.21 | 0.15 | 0.231 | 0.0911 | 0.079
9 | NCI-H650 | 0.973 | 0.885 | 0.956 | 0.984 | 0.906 | 1.03 | 0.823 | 0.946 | 0.488 | 0.557 | 0.953 | 1.03 | 0.844 | 0.46 | 0.403 | 0.464 | 0.436 | 0.409 | 0.321 | 0.332
10 | NCI-H661 | 1.05 | 1.03 | 0.998 | 0.903 | 0.985 | 0.963 | 0.858 | 0.983 | 0.961 | 0.7 | 1.01 | 0.972 | 0.964 | 0.935 | 0.439 | 1 | 0.838 | 0.928 | 0.806 | 0.394
11 | NCI-H727 | 1.09 | 0.887 | 1.02 | 0.709 | 0.954 | 0.939 | 0.86 | 0.961 | 0.78 | 0.734 | 1.07 | 1.21 | 1.03 | 0.787 | 0.476 | 0.425 | 0.364 | 0.48 | 0.361 | 0.37
12 | NCI-H838 | 0.97 | 0.981 | 1.04 | 0.79 | 0.904 | 1.04 | 0.863 | 0.967 | 0.755 | 0.739 | 1 | 0.986 | 0.811 | 0.58 | 0.193 | 0.378 | 0.259 | 0.266 | 0.247 | 0.259
13 | NCI-H1355 | 1 | 0.967 | 0.995 | 0.833 | 0.963 | 1.09 | 0.89 | 0.94 | 0.859 | 0.751 | 1.07 | 1.01 | 0.777 | 0.582 | 0.508 | 0.836 | 0.652 | 0.716 | 0.599 | 0.519
